Experimental data published in patent publication US8859555B2, “Lysine Specific Demethylase-1 inhibitors and their use” (Oryzon Genomics S.A., priority 2009, dated 2014).
Counter-ions that a name gives are not always drawn. Like-named read-outs stand apart in the source and are kept apart here.

Experiments:
[1] = molecular target: T1, Human recombinant monoamine oxidase MAO-A (Homo sapiens, UniProt P21397); test: MAO-A kynuramine fluorescence inhibition assay; assay type: biochemical
T1 construct: purchased Sigma Aldrich
T1 sequence (P21397 1-527): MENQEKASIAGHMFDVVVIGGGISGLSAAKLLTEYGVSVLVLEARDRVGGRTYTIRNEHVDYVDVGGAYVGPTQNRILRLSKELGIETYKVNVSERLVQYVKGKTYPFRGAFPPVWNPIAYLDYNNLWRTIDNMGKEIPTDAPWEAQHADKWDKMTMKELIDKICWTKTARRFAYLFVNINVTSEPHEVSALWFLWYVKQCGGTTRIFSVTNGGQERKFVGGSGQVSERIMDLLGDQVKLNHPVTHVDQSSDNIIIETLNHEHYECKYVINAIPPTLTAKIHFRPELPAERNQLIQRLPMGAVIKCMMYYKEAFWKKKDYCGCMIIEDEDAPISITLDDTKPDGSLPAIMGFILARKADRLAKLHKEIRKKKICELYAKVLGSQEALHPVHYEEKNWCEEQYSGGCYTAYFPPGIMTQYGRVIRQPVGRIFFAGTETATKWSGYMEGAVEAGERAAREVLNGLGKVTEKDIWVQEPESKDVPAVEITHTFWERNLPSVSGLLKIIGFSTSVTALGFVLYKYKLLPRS
Text: (§1) Human recombinant monoamine oxidase proteins MAO-A and MAO-B were purchased from Sigma Aldrich. […] In order to monitor MAO enzymatic activities and/or their inhibition rate by inhibitor(s) of interest, a fluorescent-based (inhibitor)-screening assay was set up. 3-(2-Aminophenyl)-3-oxopropanamine (kynuramine dihydrobromide, Sigma Aldrich), a non fluorescent compound was chosen as a substrate. Kynuramine is a non-specific substrate for both MAOs activities. While undergoing oxidative deamination by MAO activities, kynuramine is converted into 4-hydroxyquinoline (4-HQ), a resulting fluorescent product.
(§2) The monoamine oxidase activity was estimated by measuring the conversion of kynuramine into 4-hydroxyquinoline. Assays were conducted in 96-well black plates with clear bottom (Corning) in a final volume of 100 μL. The assay buffer was 100 mM HEPES, pH 7.5. Each experiment was performed in triplicate within the same experiment.
(§3) Briefly, a fixed amount of MAO (0.25 μg for MAO-A and 0.5 μg for MAO-B) was incubated on ice for 15 minutes in the reaction buffer, in the absence and/or in the presence of various concentrations of inhibitor (e.g., from 0 to 50 μM, depending on the inhibitor strength).
(§4) After leaving the enzyme(s) interacting with the inhibitor, 60 to 90 μM of kynuramine was added to each reaction for MAO-B and MAO-A assay respectively, and the reaction was left for 1 hour at 37° C. in the dark. The oxidative deamination of the substrate was stopped by adding 50 μL (v/v) of NaOH 2N. The conversion of kynuramine to 4-hydroxyquinoline, was monitored by fluorescence (excitation at 320 nm, emission at 360 nm) using a microplate reader (Infinite 200, Tecan). Arbitrary units were used to measure levels of fluorescence produced in the absence and/or in the presence of inhibitor.
(§5) The Ki of each inhibitor was measure at Vmax/2.

[2] = molecular target: T2, Human recombinant monoamine oxidase MAO-B (Homo sapiens, UniProt P27338); test: MAO-B kynuramine fluorescence inhibition assay; assay type: biochemical; conditions: Ki range class
T2 construct: purchased Sigma Aldrich
T2 sequence (P27338 1-520): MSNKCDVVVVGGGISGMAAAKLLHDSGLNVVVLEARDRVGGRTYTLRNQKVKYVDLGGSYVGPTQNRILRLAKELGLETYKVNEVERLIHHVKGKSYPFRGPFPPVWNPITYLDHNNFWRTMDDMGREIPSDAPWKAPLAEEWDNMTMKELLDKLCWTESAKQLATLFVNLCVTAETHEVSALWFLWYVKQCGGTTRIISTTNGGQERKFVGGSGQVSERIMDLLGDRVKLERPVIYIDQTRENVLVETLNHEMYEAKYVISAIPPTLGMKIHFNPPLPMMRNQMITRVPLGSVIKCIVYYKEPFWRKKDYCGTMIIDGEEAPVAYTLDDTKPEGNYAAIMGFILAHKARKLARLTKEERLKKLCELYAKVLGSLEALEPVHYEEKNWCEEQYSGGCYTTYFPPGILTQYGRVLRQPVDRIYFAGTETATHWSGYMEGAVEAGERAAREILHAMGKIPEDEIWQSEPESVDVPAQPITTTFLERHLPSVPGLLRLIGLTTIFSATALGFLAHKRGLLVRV
Text: as §1, §2, §3, §4, §5

[3] = molecular target: T3, Human recombinant LSD1 protein (Homo sapiens, UniProt O60341); test: LSD1 inhibition, Amplex Red peroxide/peroxidase-coupled demethylase assay; assay type: biochemical; conditions: for Ki: Ki range class
T3 construct: purchased BPS Bioscience Inc
Text: Human recombinant LSD1 protein was purchased from BPS Bioscience Inc. In order to monitor LSD1 enzymatic activity and/or its inhibition rate by our inhibitor(s) of interest, di-methylated H3-K4 peptide (Millipore) was chosen as a substrate. The demethylase activity was estimated, under aerobic conditions, by measuring the release of H2O2 produced during the catalytic process, using the Amplex® Red peroxide/peroxidase-coupled assay kit (Invitrogen).
Within the experiment, each concentration of inhibitor was tested in triplicate. […] The enzymatic reactions were set up in a 50 mM sodium phosphate, pH 7.4 buffer. At the end of the incubation, Amplex® Red reagent and horseradish peroxidase (HPR) solution were added to the reaction according to the recommendations provided by the supplier (Invitrogen), and left to incubate for 30 extra minutes at room temperature in the dark. A 1 μM H2O2 solution was used as a control of the kit efficiency. The conversion of the Amplex® Red reagent to resorufin due to the presence of H2O2 in the assay, was monitored by fluorescence (excitation at 540 nm, emission at 590 nm) using a microplate reader (Infinite 200, Tecan). Arbitrary units were used to measure level of H2O2 produced in the absence and/or in the presence of inhibitor.
The maximum demethylase activity of LSD1 was obtained in the absence of inhibitor and corrected for background fluorescence in the absence of LSD1. The Ki of each inhibitor was estimated at half of the maximum activity.

[4] = test system: human colon cancer cell line HCT116; test: Cancer cell line study, alamarBlue viability assay; assay type: cell-based; conditions: HCT-116, dose required to inhibit cell growth by 50%, 72 hours, read-out: EC50 value for HCT-116 cells
Procedure: The human colon cancer cell line HCT116 was obtained from the American Type Culture Collection (ATCC; CCL-247). The HCT116 cell line was maintained in DMEM GlutaMAX (Invitrogen) supplemented with 10% fetal calf serum. Cells were grown in a humidified incubator at 37 C in 5% CO2. Cells were plated in 96-well plates at a density of 6000 cells/well in 100 μl medium 24 h before addition of drugs. They were then added in concentrations from 100 μM to 0.45 nM (each concentration in triplicate). To do so, a drugs-dilution plate at twice the screening concentrations was prepared. 72 hours later, alamarBlue (Biosource, Invitrogen) viability assay was performed following manufacturer's protocol. In brief, alamarBlue diluted in media was added to cells to have a 5% solution. Cells were incubated at 37 C, 3 hours and at room temperature, 30 min. Cells with no drug and, cells with no drug and lysed with triton X-100 were used as controls. Fluorescence was monitored at 530 nm excitation and 590 nm emission wavelengths. Results were quantified using Infinite F200 Microplate Reader (Tecan Group, Ltd.). EC50 were calculated as the dose of drugs required to inhibit cell growth by 50%, with Origin 7.0 computer program.

[5] = Ki range class, read-out: MAO A (Ki)

Compound | Ki [1, 5] [µM] | Ki [2] [µM] | Ki [3] [µM] | MAO B (Ki) [2] | Ki ([1]; Ki (IC50), in these assays described herein, read-out: Ki for MAO-A) [µM] | MAO A (Ki) ([1]; Ki range class) | EC50 [4] [µM] | Ki value for LSD1 lower than Ki values for MAO-A and MAO-B ([3]; selectivity LSD1 versus MAO-A and MAO-B)
CN(C)[C@@H]1CCN(CCN[C@H]2CC2c2ccccc2)C1 (stereo partly drawn) [Example 6, (3R)—N,N-dimethyl-1-(2-{[(trans)-2-phenylcyclopropyl]amino}ethyl)pyrrolidin-3-amine] | 1 to 40 | 1 to 40 | – | – | – | – | – | –
CN(C)CCNCCN[C@@H]1C[C@H]1c1ccccc1 (relative stereo) [Example 3, N,N-dimethyl-N′-(2-{[(trans)-2-phenylcyclopropyl]amino}ethyl)ethane-1,2-diamine] | > 40 | 1 to 40 | 0.1 to 1 | – | – | – | – | –
c1ccc([C@@H]2C[C@H]2NCCN2CCCCC2)cc1 (relative stereo) [Example 9, N-[(trans)-2-phenylcyclopropyl]-N-(2-piperidin-1-ylethyl)amine] | > 40 | 1 to 40 | 0.001 to 0.1 | – | – | – | – | –
CN1CCN(CCN[C@@H]2C[C@H]2c2ccc(-c3cccc(C(F)(F)F)c3)cc2)CC1 (relative stereo) [Example 11, (Trans)-N-(2-(4-methylpiperazin-1-yl)ethyl)-2-(3′-(trifluoromethyl)biphenyl-4-yl)cyclopropanamine dihydrochloride] | 1 to 40 | 1 to 40 | 0.001 to 0.1 | – | – | – | – | –
CN(C)[C@H]1CCN(CCN[C@H]2CC2c2ccccc2)C1 (stereo partly drawn) [Example 5, (3S)—N,N-dimethyl-1-(2-{[(trans)-2-phenylcyclopropyl]amino}ethyl)pyrrolidin-3-amine dihydrochloride salt] | > 40 | > 40 | – | – | – | – | – | –
CCN(CC)CCN[C@@H]1C[C@H]1c1ccccc1 (relative stereo) [Example 8, N1,N1-diethyl-N2-((trans)-2-phenylcyclopropyl)ethane-1,2-diamine dihydrochloride salt] | 1 to 40 | > 40 | 0.001 to 0.1 | – | – | – | – | –
Cl.Cl.c1ccc([C@@H]2C[C@H]2NCCN2CCNCC2)cc1 (relative stereo) [Example 7, N-[(trans)-2-phenylcyclopropyl]-N-(2-piperazin-1-ylethyl)amine dihydrochloride salt] | – | > 40 | 0.001 to 0.1 | – | ~40 | I, II | – | –
CN1CCN(CCN[C@@H]2C[C@H]2c2ccccc2)CC1 (relative stereo) [Example 1, N-[2-(4-methylpiperazin-1-yl)ethyl]-N-[(trans)-2-phenylcyclopropyl]amine dihydrochloride salt] | > 40 | 1 to 40 | 0.001 to 0.1 | – | – | – | – | –
CN1CCN(CCN[C@@H]2C[C@H]2c2ccc(OCc3ccccc3)cc2)CC1 (relative stereo) [Example 10, (trans)-2-(4-(benzyloxy)phenyl)-N-(2-(4-methylpiperazin-1-yl)ethyl)cyclopropanamine dihydrochloride salt] | 1 to 40 | 1 to 40 | 0.001 to 0.1 | – | – | – | ~11 | –
Cl.Cl.N[C@@H]1CCN(CCN[C@H]2CC2c2ccccc2)C1 (stereo partly drawn) [Example 4, (3R)-1-(2-{[(trans)-2-phenylcyclopropyl]amino}ethyl)pyrrolidin-3-amine dihydrochloride salt] | > 40 | > 40 | 0.001 to 0.1 | – | – | – | – | more than 100 fold
c1ccc([C@@H]2C[C@H]2NCCNC2CC2)cc1 (relative stereo) [Example 2, N-cyclopropyl-N′-[(trans)-2-phenylcyclopropyl]ethane-1,2-diamine dihydrochloride salt] | 1 to 40 | 0.1 to 1 | 0.1 to 1 | – | – | – | – | –

Continued, values first:

Ki [1, 5] [µM] | Ki [2] [µM] | Ki [3] [µM] | MAO B (Ki) [2] | Ki ([1]; Ki (IC50), in these assays described herein, read-out: Ki for MAO-A) [µM] | MAO A (Ki) ([1]; Ki range class) | EC50 [4] [µM] | Ki value for LSD1 lower than Ki values for MAO-A and MAO-B ([3]; selectivity LSD1 versus MAO-A and MAO-B) | Compound
– | 1 to 40 | 0.001 to 0.1 | – | – | – | – | – | CN1CCN(CCN[C@@H]2C[C@H]2c2ccc(-c3cccc(Cl)c3)cc2)CC1 (relative stereo) [Example 12, (Trans)-2-(3′-chlorobiphenyl-4-yl)-N-(2-(4-methylpiperazin-1-yl)ethyl)cyclopropanamine dihydrochloride]
1 to 40 | – | 0.1 to 1 | II, I II | – | – | – | – | FC(F)(F)c1cccc(-c2ccc([C@@H]3C[C@H]3NCCNC3CC3)cc2)c1 (relative stereo) [Example 14, N^1-cyclopropyl-N^2-((trans)-2-(3′-(trifluoromethyl)biphenyl-4-yl)cyclopropyl)ethane-1,2-diamine]
1 to 40 | 1 to 40 | 0.1 to 1 | – | – | – | – | – | CC(C)CSCCN[C@@H]1C[C@H]1c1ccccc1 (relative stereo) [Example 15, N-(trans)-2-(isobutylthio)-ethyl-2-phenylcyclopropanamine hydrochloride]
1 to 40 | 1 to 40 | 0.1 to 1 | – | – | – | – | – | COCCN[C@@H]1C[C@H]1c1ccccc1 (relative stereo) [Example 17, N-trans-(2-methoxyethyl)-2-phenylcyclopropanamine hydrochloride]
1 to 40 | 1 to 40 | 0.1 to 1 | – | – | – | – | – | CCOCCN[C@@H]1C[C@H]1c1ccccc1 (relative stereo) [Example 16, N-trans-(2-ethoxyethyl)-2-phenylcyclopropanamine hydrochloride]
1 to 40 | 1 to 40 | 0.001 to 0.1 | – | – | – | – | – | N[C@@H]1CCN(CCN[C@H]2CC2c2ccc(-c3cccc(C(F)(F)F)c3)cc2)C1 (stereo partly drawn) [Example 13, (R)-1-(2-((trans)-2-(3′-(trifluoromethyl)biphenyl-4-yl)cyclopropylamino)ethyl)pyrrolidin-3-amine dihydrochloride]
